≈ marks a conversion by molar mass, not a printed value.
What was measured:
[1] = tested on: Panc1 (pancreas); assay: MTT cytotoxicity test, Panc1; type: cell-based
[2] = tested on: BxPC3 (pancreas); assay: MTT cytotoxicity test, BxPC3; type: cell-based
[3] = tested on: U373MG (astrocyte); assay: MTT cytotoxicity test, U373MG; type: cell-based
[4] = tested on: Colo205 (colon); assay: MTT cytotoxicity test, Colo205; type: cell-based
[5] = tested on: T47D (breast); assay: MTT cytotoxicity test, T47D; type: cell-based
[6] = tested on: SK-0V3 (ovarian)
[7] = tested on: T47D, Colo205, Panc1, BxPC3, U373MG, SK-0V3; assay: MTT cytotoxicity test, activity compared to native chelidonine across the cell lines; type: cell-based; conditions: for activity compared to native chelidonine: overall, times higher than native chelidonine; for activity compared to native chelidonine, range: range of times higher than native chelidonine

Row | Compound | IC50 ([1]; Homo sapiens, PANC-1) | IC50 ([2]; Homo sapiens, BXPC-3) | IC50 ([3]; Homo sapiens, U373 MG) | IC50 ([4]; Homo sapiens, COLO 205) | IC50 ([5]; Homo sapiens) | IC50, MTT cytotoxicity test [1] | IC50, MTT cytotoxicity test [2] | IC50, MTT cytotoxicity test [3] | IC50, MTT cytotoxicity test [6] | activity compared to native chelidonine [7] | activity compared to native chelidonine, range [7] | IC50, MTT cytotoxicity test [4] | IC50, MTT cytotoxicity test [5]
1 | CN1Cc2c(ccc3c2OCO3)[C@@H]2[C@H]1c1cc3c(cc1C[C@@H]2O)OCO3 [Chelidonine] | 0.25 µg/mL (≈ 0.707 µM) | > 8 µg/mL | > 8 µg/mL | 0.37 µg/mL (≈ 1.05 µM) | 0.2 µg/mL (≈ 0.566 µM) | – | – | – | – | – | – | – | –
2 | COC(=O)CCC(=O)O[C@H]1Cc2cc3c(cc2[C@@H]2[C@H]1c1ccc4c(c1CN2C)OCO4)OCO3 [Chelidoninyl methyl succinate, Succinic Acid Chelidoninyl Methyl ester] | – | – | – | – | – | 0.005 µg/mL | <0.0035 µg/mL | 4 µg/mL | 0.0035 µg/mL | approximately 30 times | 50-150 times | 0.0035 µg/mL | 0.02 µg/mL
3 | CN1Cc2c(ccc3c2OCO3)C2C(OC(=O)OC(Cl)(Cl)Cl)Cc3cc4c(cc3C21)OCO4 (centres unmarked) [Chelidoninyl trichloromethyl carbonate, Chelidoninyl Trichloromethyl Carbonate] | – | – | – | – | – | 0.25 µg/mL (≈ 0.486 µM) | >8 µg/mL | >8 µg/mL | – | – | – | 0.5 µg/mL (≈ 0.971 µM) | 0.2 µg/mL (≈ 0.389 µM)
4 | Chelidoninyl Trifluoroacetate [Chelidonine trifluoroacetate] | – | – | – | – | – | 0.06 µg/mL | 0.03 µg/mL | >4 µg/mL | 0.06 µg/mL | 5 times | 4-10 times | 0.045 µg/mL | 0.02 µg/mL
